Measured values from ChEMBL document CHEMBL1201862, “PubChem BioAssay data set” (2004).
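Growth conditions: 96-well plates. Treatment: test compound, 48 hours, 5 concentrations. Analysis: linear interpolation between bracketing concentrations; unreached endpoints set to highest concentration. GI50: concentration for 50% inhibition of growth.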 Calls of active or inactive are those of the source. No stated cut-off is given here; in the data, active = GI50 up to about 1.1 µM and inactive = higher.

Key:
Assay in all cases: NCI tumour cell line growth inhibition, 48 h
RPMI-8226 = test system: RPMI-8226
K562 = test system: K562
TK-10 = test system: TK-10
SNB-19 = test system: SNB-19
HCT-116 = test system: HCT-116
HOP-62 = test system: HOP-62
HCT-15 = test system: HCT-15
MCF7 = test system: MCF7
Hs-578T = test system: Hs-578T
CAKI-1 = test system: CAKI-1
NCI-H23 = test system: NCI-H23
U-251 = test system: U-251
MDA-MB-231 = test system: MDA-MB-231
SN12C = test system: SN12C
OVCAR-5 = test system: OVCAR-5
CCRF-CEM = test system: CCRF-CEM
SNB-75 = test system: SNB-75
NCI-H460 = test system: NCI-H460
HCC 2998 = test system: HCC 2998

Row | SMILES | GI50 (RPMI-8226) | GI50 (K562) | GI50 (TK-10) | GI50 (SNB-19) | GI50 (HCT-116) | GI50 (HOP-62) | GI50 (HCT-15) [µM] | GI50 (MCF7) | GI50 (Hs-578T) | GI50 (CAKI-1) | GI50 (NCI-H23) | GI50 (U-251) | GI50 (MDA-MB-231) | GI50 (SN12C) | GI50 (OVCAR-5) | GI50 (CCRF-CEM) | GI50 (SNB-75) | GI50 (NCI-H460) | GI50 (HCC 2998)
1 | CC(C)CC1c2[nH]c3ccccc3c2C[C@H]2C(=O)NC(CCC(=O)OC(C)(C)C)C(=O)N12 (some centres undefined) | 25.8 µM (inactive) | 36.9 µM (inactive) | 25.8 µM (inactive) | 37.3 µM (inactive) | 28.8 µM (inactive) | 23 µM (inactive) | 33.8 | 36.9 µM (inactive) | 15.1 µM (inactive) | 42.4 µM (inactive) | 34.6 µM (inactive) | 29 µM (inactive) | 27.2 µM (inactive) | 22.8 µM (inactive) | 34.3 µM (inactive) |  |  |  | 
2 | c1c[nH]c(CN2CCN(Cc3ncc[nH]3)CC2)n1 | > 100 µM (inactive) |  | > 100 µM (inactive) | > 100 µM (inactive) | > 100 µM (inactive) | > 100 µM (inactive) | > 100 | > 100 µM (inactive) | > 100 µM (inactive) | > 100 µM (inactive) | > 100 µM (inactive) | > 100 µM (inactive) | > 100 µM (inactive) | > 100 µM (inactive) | > 100 µM (inactive) | > 100 µM (inactive) | > 100 µM (inactive) | > 100 µM (inactive) | 
3 | COc1cccc2c1OC(c1ccc(C#N)cc1)C([N+](=O)[O-])=C2 (centres undefined) |  | 1.21 µM (inactive) | 3.11 µM (inactive) | 6.46 µM (inactive) | 1.48 µM (inactive) | 3.21 µM (inactive) | 1.7 | 1.5 µM (inactive) | 1.78 µM (inactive) | 0.908 µM (active) | 1.71 µM (inactive) | 1.86 µM (inactive) | 1.56 µM (inactive) | 2.04 µM (inactive) | 1.95 µM (inactive) | 1.58 µM (inactive) | 2.47 µM (inactive) | 2.22 µM (inactive) | 1.76 µM (inactive)
4 | N/C(=N\c1ccc(Cl)cc1)NS(=O)(=O)c1ccc(S(=O)(=O)c2ccccc2)s1 | 16.6 µM (inactive) | 18.8 µM (inactive) | 21.2 µM (inactive) | 33.8 µM (inactive) | 15.4 µM (inactive) | 18.1 µM (inactive) | 17.5 | 17.2 µM (inactive) | 24 µM (inactive) |  | 17.7 µM (inactive) | 14.4 µM (inactive) | 12.9 µM (inactive) | 17.5 µM (inactive) | 31.9 µM (inactive) |  | 35.7 µM (inactive) | 17.3 µM (inactive) | 
5 | CN(C)c1ccc(/C=C2\N=C(c3ccccc3)N(c3nc4c(Cl)cc(Cl)cc4s3)C2=O)cc1 | 14.9 µM (inactive) | 31.6 µM (inactive) | 85.7 µM (inactive) | 82.4 µM (inactive) | 35.2 µM (inactive) | > 100 µM (inactive) | 43.6 | 31.6 µM (inactive) | 27 µM (inactive) | 41.8 µM (inactive) |  | 55.3 µM (inactive) | 29.7 µM (inactive) | 44 µM (inactive) | 57.9 µM (inactive) | 0.731 µM (active) |  | 27.7 µM (inactive) | 45.2 µM (inactive)
6 | C[C@H]1/C(=C/C(=O)OCCN(C)C)CC[C@H]2[C@H]1C(=O)C[C@H]1C(C)(C)[C@@H](O)CC[C@]21C | > 100 µM (inactive) |  | > 100 µM (inactive) | > 100 µM (inactive) | > 100 µM (inactive) | > 100 µM (inactive) | > 100 | > 100 µM (inactive) | > 100 µM (inactive) | > 100 µM (inactive) | > 100 µM (inactive) | > 100 µM (inactive) | > 100 µM (inactive) | > 100 µM (inactive) | > 100 µM (inactive) | > 100 µM (inactive) |  | > 100 µM (inactive) | > 100 µM (inactive)
7 | CCc1nn(CN2CCOCC2)c(=S)n1/N=C/c1ccc(-c2ccc(Cl)cc2)o1 | 51.5 µM (inactive) | > 100 µM (inactive) | > 100 µM (inactive) |  | > 100 µM (inactive) | > 100 µM (inactive) | > 100 | > 100 µM (inactive) | > 100 µM (inactive) | > 100 µM (inactive) | > 100 µM (inactive) | > 100 µM (inactive) | > 100 µM (inactive) |  | > 100 µM (inactive) |  | 50.8 µM (inactive) | > 100 µM (inactive) | 
8 | CC(=O)OCC1OC(c2nnc(C)o2)=CC(OC(C)=O)C1OC(C)=O (centres undefined) | > 100 µM (inactive) | > 100 µM (inactive) | > 100 µM (inactive) | > 100 µM (inactive) | > 100 µM (inactive) | > 100 µM (inactive) |  | > 100 µM (inactive) | > 100 µM (inactive) | > 100 µM (inactive) | > 100 µM (inactive) | > 100 µM (inactive) | > 100 µM (inactive) | > 100 µM (inactive) | > 100 µM (inactive) | > 100 µM (inactive) | > 100 µM (inactive) | > 100 µM (inactive) | 
9 | O=C1CCC(=O)N1CNc1ccc2c(c1)S(=O)(=O)c1ccccc1O2 | 54.7 µM (inactive) | > 100 µM (inactive) | > 100 µM (inactive) | > 100 µM (inactive) | > 100 µM (inactive) | > 100 µM (inactive) | > 100 | > 100 µM (inactive) | > 100 µM (inactive) | > 100 µM (inactive) | > 100 µM (inactive) | > 100 µM (inactive) | > 100 µM (inactive) | > 100 µM (inactive) | > 100 µM (inactive) | > 100 µM (inactive) |  |  | 
10 | CC1N=C(c2ccccc2)OC1=O (centres undefined) | > 100 µM (inactive) | > 100 µM (inactive) | > 100 µM (inactive) | > 100 µM (inactive) | > 100 µM (inactive) | > 100 µM (inactive) | > 100 | > 100 µM (inactive) | > 100 µM (inactive) | > 100 µM (inactive) | > 100 µM (inactive) | > 100 µM (inactive) | > 100 µM (inactive) | > 100 µM (inactive) | > 100 µM (inactive) | > 100 µM (inactive) | > 100 µM (inactive) | > 100 µM (inactive) | 
11 | NNc1ncnc2cccc(Cl)c12 |  | > 100 µM (inactive) | > 100 µM (inactive) | > 100 µM (inactive) | > 100 µM (inactive) | > 100 µM (inactive) | > 100 | > 100 µM (inactive) | > 100 µM (inactive) | > 100 µM (inactive) | > 100 µM (inactive) | > 100 µM (inactive) | > 100 µM (inactive) | > 100 µM (inactive) | > 100 µM (inactive) | > 100 µM (inactive) | > 100 µM (inactive) | > 100 µM (inactive) | > 100 µM (inactive)
12 | c1ccc(-c2cc(-c3cc(-c4ccccc4)n(-c4ccccc4)n3)nn2-c2ccccc2)cc1 |  | > 100 µM (inactive) | > 100 µM (inactive) | > 100 µM (inactive) | > 100 µM (inactive) | 35.7 µM (inactive) | > 100 | > 100 µM (inactive) | 52 µM (inactive) | > 100 µM (inactive) | > 100 µM (inactive) | > 100 µM (inactive) | > 100 µM (inactive) | > 100 µM (inactive) | > 100 µM (inactive) | > 100 µM (inactive) | 56.9 µM (inactive) | > 100 µM (inactive) | > 100 µM (inactive)
13 | COc1ccc(/C=C2\S/C(=N/Nc3nc(-c4ccccc4)cs3)NC2=O)cc1OC |  |  | 20.5 µM (inactive) | 25.6 µM (inactive) | 17.1 µM (inactive) | 22.1 µM (inactive) | 21.5 | 19.2 µM (inactive) | 24.6 µM (inactive) | 31.8 µM (inactive) | 19.1 µM (inactive) | 26.3 µM (inactive) | 21.9 µM (inactive) | 17.8 µM (inactive) | 23.4 µM (inactive) | 4.1 µM (inactive) | 22.8 µM (inactive) | 23 µM (inactive) | 22.4 µM (inactive)
14 | O=C(Nc1ccccc1Cl)c1cc(S(=O)(=O)Nc2n[nH]c(=O)n2-c2ccccc2)c(S)cc1Cl | > 100 µM (inactive) |  |  | 92.3 µM (inactive) | > 10 µM (inactive) | > 100 µM (inactive) | > 100 | > 100 µM (inactive) | > 100 µM (inactive) | > 100 µM (inactive) | > 100 µM (inactive) | > 100 µM (inactive) | > 100 µM (inactive) | > 100 µM (inactive) | > 100 µM (inactive) | > 100 µM (inactive) |  | > 100 µM (inactive) | > 100 µM (inactive)
15 | O=C(Cn1c(C(=O)/C=C/c2ccc(Cl)c(Cl)c2)nc2ccccc21)c1ccccc1 | 23.8 µM (inactive) | 33.7 µM (inactive) | 27.9 µM (inactive) | 27.4 µM (inactive) | 15.9 µM (inactive) | 26 µM (inactive) | 25.2 | 26.9 µM (inactive) | 27.3 µM (inactive) |  | 31.6 µM (inactive) | 26.8 µM (inactive) | 22.7 µM (inactive) | 16 µM (inactive) | 17.6 µM (inactive) | 6.92 µM (inactive) |  | 16.2 µM (inactive) | 17.8 µM (inactive)
16 | COC(=O)N[C@H](C(=O)O)C(C)O[Si](C)(C)C(C)(C)C (some centres undefined) | > 100 µM (inactive) | > 100 µM (inactive) | > 100 µM (inactive) | > 100 µM (inactive) | > 100 µM (inactive) | > 100 µM (inactive) | > 100 | > 100 µM (inactive) | > 100 µM (inactive) |  | > 100 µM (inactive) | > 100 µM (inactive) | > 100 µM (inactive) | > 100 µM (inactive) | > 100 µM (inactive) | > 100 µM (inactive) |  | > 100 µM (inactive) | > 100 µM (inactive)
